# How the values were obtained:
# [1] = biological target: T1, 5-hydroxytryptamine receptor 3A (Rattus norvegicus, UniProt P35563); test: Compound was tested in vitro for its antagonistic activity against 5-hydroxytryptamine 3 receptor; format: functional
# T1 sequence (P35563 whole entry): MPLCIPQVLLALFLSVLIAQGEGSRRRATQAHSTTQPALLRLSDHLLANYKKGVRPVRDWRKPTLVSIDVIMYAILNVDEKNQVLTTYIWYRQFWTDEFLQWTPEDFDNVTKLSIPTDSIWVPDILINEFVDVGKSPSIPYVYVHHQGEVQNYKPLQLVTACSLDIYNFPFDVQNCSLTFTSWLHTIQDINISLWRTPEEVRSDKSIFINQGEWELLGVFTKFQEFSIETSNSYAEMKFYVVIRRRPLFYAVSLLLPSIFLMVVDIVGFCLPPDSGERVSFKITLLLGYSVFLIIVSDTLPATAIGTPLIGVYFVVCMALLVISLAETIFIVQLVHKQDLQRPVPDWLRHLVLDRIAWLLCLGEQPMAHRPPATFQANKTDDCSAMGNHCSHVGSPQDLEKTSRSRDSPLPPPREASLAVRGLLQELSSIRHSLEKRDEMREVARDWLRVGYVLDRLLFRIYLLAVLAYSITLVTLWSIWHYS
# [2] = biological target: T1, 5-hydroxytryptamine receptor 3A; test: Compound was tested for its binding affinity towards 5-hydroxytryptamine 3 receptor in whole rat brain using [125I]DAIZAC as the radioligand.
# [3] = biological target: T1, 5-hydroxytryptamine receptor 3A; test: Compound was tested for its binding affinity towards 5-hydroxytryptamine 3 receptor in whole rat brain using (S)-[125I]-zacopride as the radioligand.
# [4] = biological target: T1, 5-hydroxytryptamine receptor 3A; test: Compound was tested in vitro for its antagonistic activity against 5-hydroxytryptamine 3 receptor in rat CNS.; format: functional
# [5] = Apparent lipophilicity value of the compound.; format: physicochemical; conditions: octanol/water
# [6] = biological target: T1, 5-hydroxytryptamine receptor 3A; test: Compound was tested for its binding affinity towards 5-hydroxytryptamine 3 receptor
# [7] = biological target: T1, 5-hydroxytryptamine receptor 3A; test: Compound was tested for its binding affinity towards 5-HT-3 receptor in whole rat brain using (S)-[125I]-zacopride as the radioligand.
# [8] = biological target: T1, 5-hydroxytryptamine receptor 3A; test: Compound was tested for its antagonistic activity against 5-hydroxytryptamine 3 receptor in rat brain using [3H]zacopride as the radioligand.; format: functional, tissue-based
structure (smiles),measurement,setting,value
COc1c(I)cc(Cl)cc1C(=O)N[C@@H]1CN2CCC1CC2,Kd,[1],0.15 nM
COc1cc(N)c(I)cc1C(=O)NC1CN2CCC1CC2 (centres undefined),Ki,[2],1.37 nM
same,Ki,[3],1.07 nM
same,Kd,[4],2.6 nM
COc1c(C(=O)N[C@@H]2CN3CCC2CC3)cc(Cl)c(N)c1I,logD,[5],2.12
same,Ki,[2],0.075 nM
same,Ki,[6],0.05 nM
same,Ki,[7],0.052 nM
COc1cc(N)c(Cl)cc1C(=O)NC1CN2CCC1CC2 (centres undefined) [ZACOPRIDE],Kd,[8],0.6 nM
